Source: patent US4336400A, “3-(Hydroxy or hydroxymethyl)-4-hydroxy-alpha(aminomethyl)benzyl alcohols and methods of use” (Sterling Drug Inc., priority 1978, dated 1982)
Several values for one entry are separate records, joined by “and”; a condition that tells them apart may be missing. Equal values may be shown once. Where a name gives a salt, the structure may show the parent alone.

Key:
[1] = tested on: guinea pig bronchioles constricted by carbachol; test: Bronchodilator Test Method II: in vitro, perfused guinea pig lung, bronchioles constricted by carbachol; conditions: for Bronchodilator Action, Duration (min) Mean: dose mcg(base) given
Description: Bronchodilator activity was tested in anesthetized dogs (Test Method I) and in vitro on the perfused guinea pig lung (Test Method II), using the following pharmacological test procedures:
In this method bronchodilator activity in vitro was determined by testing the effect of graded doses of the test compounds on guinea pig bronchioles constricted by carbachol, using the technique reported by Sollman and von Oettingen, Proc. Soc. Exp. Biol. Med., 25, 692 (1928) as modified by Tainter, Pedden, and James, J. Pharm. Exp. Ther., 51, 371 (1934) and by Luduena, von Euler, Tuller, and Lands, Arch. Intern. Pharmacol., III, 392 (1957).

[2] = Solubility, pH of solution and precipitation; type: physicochemical; conditions: for precipitation when the pH was adjusted to 7.0 with N/10 sodium hydroxide: 1 percent aqueous solution, pH 7.0; for precipitation on dilution of a 1 percent dimethyl sulfoxide solution with three volumes of water: 1 percent solution in dimethyl sulfoxide; for precipitation on dilution of a 1 percent glycerol formal solution with three volumes of water: 1 percent solution in glycerol formal
[3] = tested on: normal airway pressure; test: Control bronchoconstriction in anesthetized dog; type: in vivo; conditions: i.v., carbachol 4 to 6 micrograms per kilogram, histamine diphosphate 35 to 45 micrograms per kilogram, majority of test animals
Description: Test Method I: Male and female dogs weighing 9-18 kg. each were anesthetized with pentobarbital sodium (30 mg./kg. i.v.). Each animal, with thorax opened at the mid-sternum, was maintained under artificial ventilation using a constant volume pump (250 ml./stroke; ten to twelve strokes per minute) attached to the tracheal cannula. The flow of air was controlled by a glass or plastic valve which closed and opened respectively on inflow and outflow of the air to and from the tracheal cannula. Bronchoconstriction and/or bronchodilatation were measured from changes in the basal airway pressure reflected by a transducer attached to the sidearm of the cannula relayed to a polygraph.
Control bronchoconstrictions were induced by intravenous injections of carbachol (choline chloride carbamate) in doses ranging from 4 to 6 micrograms per kilogram or histamine diphosphate in doses ranging from 35 to 45 micrograms per kilogram.

[4] = tested on: diastolic blood pressure; test: Effect on diastolic blood pressure in the anesthetized dog, intravenous; type: in vivo; conditions: i.v., dose (salt) mcg/kg
Description: Injections were repeated at 20-30 minutes.
Cardiovascular Studies The effect of a rapid intravenous injection on the heart rate was conducted in anesthetized dogs under normal respiration. A few open-chest dogs were also tested. Increase in heart rate was measured by using an electrocardiograph attached to the dog. Readings were taken every 0.5-1 minutes for the first 10 minutes and every 2-5 minutes thereafter until recovery. In some cases, several doses and more than one compound were tested alternately in the same dog. The blood pressure effect was simultaneously recorded.

SMILES	Bronchodilator Action, Duration (min) Mean ([1]; Doryl conc. 1:5 million) [min]	ED50 ([1]; Doryl conc. 1:5 million)	also measured
CCC(NC(C)(C)C)C(O)c1ccc(OC(=O)c2ccc(C)cc2)c(OC(=O)c2ccc(C)cc2)c1 (stereo not drawn) [Example 144, 3,4-bis(p-toluyloxy)-alpha-[1-(tert-butylamino)-propyl]benzyl alcohol hydrochloride]	83 ± 26.8	–	–
CCC(NC1CCCC1)C(O)c1ccc(OC(=O)CC(C)C)c(OC(=O)CC(C)C)c1.Cl (stereo not drawn) [Example 138, 3,4-bis(isovaleryloxy)-alpha-[1-(cyclopentylamino)propyl]benzyl alcohol hydrochloride]	25.4 ± 3.5	0.46 mcg(base)	–
CC(C)NCC(O)c1ccc(O)c(O)c1 (stereo not drawn) [Ref. Cpd. II, 3,4-Dihydroxy-alpha-(isopropylaminomethyl)benzyl alcohol, reference compound]	5	–	–
CCCC(=O)Oc1ccc(C(O)CNC(C)(C)C)cc1OC(=O)CCC.Cl (stereo not drawn) [Example 1, 3,4-bis(butyryloxy)-alpha-(tert-butylaminomethyl)-benzyl alcohol hydrochloride]	9 ± 1.0	0.23 mcg(base)	precipitation when the pH was adjusted to 7.0 with N/10 sodium hydroxide [2]: a precipitate formed
CCC(C)CC(=O)Oc1ccc(C(O)CNC(C)(C)C)cc1OC(=O)CC(C)CC.Cl (stereo not drawn) [Example 6, 3,4-bis(3-methylpentanoyloxy)-alpha-(tert-butylaminomethyl)benzyl alcohol hydrochloride]	43 ± 3.7	1.3 mcg(base)	–
CC(C)(C)NCC(O)c1ccc(OC(=O)C2CCCCC2)c(OC(=O)C2CCCCC2)c1.Cl (stereo not drawn) [Example 15, 3,4-bis(cyclohexanecarbonyloxy)-alpha-(tert-butylaminomethyl)benzyl alcohol hydrochloride]	53 ± 7	1.3 mcg(base)	precipitation on dilution of a 1 percent dimethyl sulfoxide solution with three volumes of water [2]: no precipitate formed
CC(C)C(=O)Oc1ccc(C(O)CNC(C)(C)C)cc1OC(=O)C(C)C.Cl (stereo not drawn) [Example 2, 3,4-bis(isobutyryloxy)-alpha-(tert-butylaminomethyl)-benzyl alcohol hydrochloride]	9 ± 1.1	0.28 mcg(base)	–
NCCc1c[nH]cn1 [histamine diphosphate]	–	–	increase in the normal airway pressure or amplitude [3]: 100-200%
CC(C)(C)NCC(O)c1ccc(OC(=O)c2ccccc2)c(OC(=O)c2ccccc2)c1.Cl (stereo not drawn) [Example 29, 3,4-bis(benzoyloxy)-alpha-(tert-butylaminomethyl)-benzyl alcohol hydrochloride]	34 ± 6.4	1.1 mcg(base)	precipitation on dilution of a 1 percent dimethyl sulfoxide solution with three volumes of water [2]: no precipitate formed; precipitation on dilution of a 1 percent glycerol formal solution with three volumes of water [2]: no precipitate formed
CC(C)CC(=O)Oc1ccc(C(O)CNC(C)(C)C)cc1OC(=O)CC(C)C.Cl (stereo not drawn) [Example 3, 3,4-bis(isovaleryloxy)-alpha-(tert-butylaminomethyl)benzyl alcohol hydrochloride]	18 ± 4	0.6 mcg(base)	precipitation when the pH was adjusted to 7.0 with N/10 sodium hydroxide [2]: a precipitate formed
CCC(C)C(=O)Oc1ccc(C(O)CNC(C)(C)C)cc1OC(=O)C(C)CC.Cl (stereo not drawn) [Example 4, 3,4-bis(2-methylbutanoyloxy)-alpha-(tert-butylaminomethyl)benzyl alcohol hydrochloride]	20 ± 3	0.45 mcg(base)	–
COc1ccc(C(=O)Oc2ccc(C(O)CNC(C)(C)C)cc2COC(C)=O)cc1 (stereo not drawn) [Example 151, 3-(acetoxymethyl)-4-(p-anisoyloxy)-alpha-(tert-butylaminomethyl)benzyl alcohol methanesulfonate]	–	–	Mean Decrease in Diastolic Blood Pressure in % [4]: 10%
CC(C)CC(=O)Oc1cc(C(O)CNC(C)(C)C)ccc1OC(=O)C(C)(C)C.Cl (stereo not drawn) [Example 71, 3-(isovaleryloxy)-4-(pivalyloxy)-alpha-(tert-butylaminomethyl)benzyl alcohol hydrochloride]	26	0.63 mcg(base)	–
Cc1ccc(C(=O)Oc2ccc(C(O)CNC(C)(C)C)cc2OC(=O)c2ccc(C)cc2)cc1 (stereo not drawn) [Example 30, 3,4-bis(p-toluyloxy)-alpha-(tert-butylaminomethyl)-benzyl alcohol methanesulfonate]	–	–	Mean Decrease in Diastolic Blood Pressure in % [4]: 2% and 11% and 11.5%
C[N+](C)(C)CCOC(N)=O [carbachol, choline chloride carbamate]	–	–	increase in the normal airway pressure or amplitude [3]: 100-200%
CC(C)(C)NCC(O)c1ccc(O)c(O)c1 (stereo not drawn) [Ref. Cpd. I, 3,4-Dihydroxy-alpha-(tert-butylaminomethyl)benzyl alcohol, reference compound]	5 ± 1.4	0.18 mcg(base)	–
COc1ccc(C(=O)Oc2ccc(C(O)CNC(C)(C)C)cc2OC(=O)c2ccc(OC)cc2)cc1.Cl (stereo not drawn) [Example 33, 3,4-bis(p-anisoyloxy)-alpha-(tert-butylaminomethyl)-benzyl alcohol hydrochloride]	32 ± 5	6.9 mcg(base)	precipitation on dilution of a 1 percent dimethyl sulfoxide solution with three volumes of water [2]: no precipitate formed; precipitation on dilution of a 1 percent glycerol formal solution with three volumes of water [2]: no precipitate formed
CC(C)(C)NCC(O)c1ccc(OC(=O)C(C)(C)C)c(OC(=O)C(C)(C)C)c1.Cl (stereo not drawn) [Example 5, 3,4-bis(pivalyloxy)-alpha-(tert-butylaminomethyl)-benzyl alcohol hydrochloride]	18 ± 4.2	0.94 mcg(base)	–
CC(C)(C)CC(=O)Oc1ccc(C(O)CNC(C)(C)C)cc1OC(=O)CC(C)(C)C.Cl (stereo not drawn) [Example 7, 3,4-bis(3,3-dimethylbutanoyloxy)-alpha-(tert-butylaminomethyl)benzyl alcohol hydrochloride]	85 ± 17	23 mcg(base)	–
COc1ccc(C(=O)Oc2ccc(C(O)CNC(C)(C)C)cc2OC(=O)c2ccccc2)cc1.Cl (stereo not drawn) [Example 143, 3-benzoyloxy-4-(p-anisoyloxy)-alpha-(tert-butylaminomethyl)benzyl alcohol hydrochloride]	–	–	ED50 ([1]; Doryl conc. 1:10 million): 1.53 mcg(base); Bronchodilator Action, Duration (min) Mean ([1]; Doryl conc. 1:10 million): 29.2 ± 10.2 min
CC(C)(C)NCC(O)c1ccc(OC(=O)C2(C)CC2)c(OC(=O)C2(C)CC2)c1.Cl (stereo not drawn) [Example 13, 3,4-bis(1-methylcyclopropanecarbonyloxy)-alpha-(tert-butylaminomethyl)benzyl alcohol hydrochloride]	15 ± 1.7	0.45 mcg(base)	–
